This is an account of results in ChEMBL document CHEMBL3085697, “Design and synthesis of aryl sulfonamide-based nonsteroidal mineralocorticoid receptor antagonists” (Bioorg Med Chem Lett, 2013).

Data set [1] is described as follows: Apparent intrinsic clearance in human liver microsomes. Type of data set: ADME. As to conditions: read-out: CLH(app). Background: Liver microsomes are vesicles of endoplasmic reticulum, rich in cytochrome P450 enzymes.
Data set [2] has as its target T1, Mineralocorticoid receptor (Homo sapiens, UniProt P08235).
T1 sequence (P08235 whole entry): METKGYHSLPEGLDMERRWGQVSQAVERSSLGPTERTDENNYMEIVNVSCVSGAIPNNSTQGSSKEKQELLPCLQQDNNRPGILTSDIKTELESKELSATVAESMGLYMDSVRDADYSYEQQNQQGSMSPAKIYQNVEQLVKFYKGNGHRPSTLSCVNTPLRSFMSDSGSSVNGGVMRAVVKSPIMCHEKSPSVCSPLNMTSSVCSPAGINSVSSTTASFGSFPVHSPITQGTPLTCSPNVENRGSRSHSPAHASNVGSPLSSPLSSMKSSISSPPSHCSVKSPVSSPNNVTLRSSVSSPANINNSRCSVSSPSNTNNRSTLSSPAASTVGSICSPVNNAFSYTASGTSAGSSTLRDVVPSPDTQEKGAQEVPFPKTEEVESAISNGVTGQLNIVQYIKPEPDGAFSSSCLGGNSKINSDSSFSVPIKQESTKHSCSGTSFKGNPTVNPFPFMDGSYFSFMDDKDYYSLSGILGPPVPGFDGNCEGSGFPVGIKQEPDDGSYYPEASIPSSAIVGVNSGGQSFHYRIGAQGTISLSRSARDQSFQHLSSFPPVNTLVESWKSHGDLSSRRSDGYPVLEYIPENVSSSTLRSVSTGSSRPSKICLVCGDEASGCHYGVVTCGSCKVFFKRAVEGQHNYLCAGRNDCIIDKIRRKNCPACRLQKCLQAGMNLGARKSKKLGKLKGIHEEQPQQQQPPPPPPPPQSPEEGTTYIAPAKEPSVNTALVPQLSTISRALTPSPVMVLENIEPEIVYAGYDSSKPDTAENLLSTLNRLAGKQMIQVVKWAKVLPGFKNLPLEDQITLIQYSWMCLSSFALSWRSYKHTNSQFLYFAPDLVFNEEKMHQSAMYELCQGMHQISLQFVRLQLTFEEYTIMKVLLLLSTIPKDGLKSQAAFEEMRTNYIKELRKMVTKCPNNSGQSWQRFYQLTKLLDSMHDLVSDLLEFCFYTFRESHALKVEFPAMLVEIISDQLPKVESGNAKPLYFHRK
Nature of the data set: Antagonist activity at human mineralocorticoid receptor ligand binding domain expressed in human Huh7 cells after 16 hrs by luciferase reporter gene assay in absence of serum. Type of data set: cell-based, Huh-7. (In a reporter assay the amount or activity of a reporter protein is the signal.)

The next data set has as its target T2, Glucocorticoid receptor (Homo sapiens, UniProt P04150).
T2 sequence (P04150 whole entry): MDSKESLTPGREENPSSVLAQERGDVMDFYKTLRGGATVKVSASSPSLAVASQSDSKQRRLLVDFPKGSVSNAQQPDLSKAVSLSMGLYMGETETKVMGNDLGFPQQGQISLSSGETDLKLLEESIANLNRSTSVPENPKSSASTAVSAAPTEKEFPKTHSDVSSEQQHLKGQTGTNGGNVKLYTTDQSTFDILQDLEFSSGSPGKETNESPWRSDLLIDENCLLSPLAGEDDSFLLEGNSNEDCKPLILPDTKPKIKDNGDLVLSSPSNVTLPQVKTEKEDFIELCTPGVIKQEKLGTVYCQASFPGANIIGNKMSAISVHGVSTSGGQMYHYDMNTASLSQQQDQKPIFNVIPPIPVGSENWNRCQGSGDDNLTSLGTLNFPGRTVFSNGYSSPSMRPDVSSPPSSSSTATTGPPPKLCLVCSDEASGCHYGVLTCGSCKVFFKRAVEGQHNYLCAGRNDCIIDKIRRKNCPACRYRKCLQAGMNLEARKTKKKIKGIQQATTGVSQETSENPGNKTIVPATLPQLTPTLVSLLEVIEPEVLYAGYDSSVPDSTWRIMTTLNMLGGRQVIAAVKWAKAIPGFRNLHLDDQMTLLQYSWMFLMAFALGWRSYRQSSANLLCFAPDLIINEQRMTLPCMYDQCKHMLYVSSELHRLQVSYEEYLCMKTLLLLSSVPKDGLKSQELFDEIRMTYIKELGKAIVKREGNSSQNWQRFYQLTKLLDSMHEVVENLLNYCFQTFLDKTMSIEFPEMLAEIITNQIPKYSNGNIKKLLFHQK
Briefly: Displacement of [3H]dexamethasone from GST-tagged human glucocorticoid receptor ligand binding domain after 4 hrs by liquid scintillation counting. (In general: Loss of bound radioactivity is the signal in a displacement assay; it reports binding, not function.)

Data set [3] can be described thus: Lipophilicity, log D of the compound. Type of data set: physicochemical. As to conditions: octanol/water.
A further data set addresses T3, CYP1A2 (Homo sapiens, UniProt P05177).
T3 sequence (P05177 whole entry): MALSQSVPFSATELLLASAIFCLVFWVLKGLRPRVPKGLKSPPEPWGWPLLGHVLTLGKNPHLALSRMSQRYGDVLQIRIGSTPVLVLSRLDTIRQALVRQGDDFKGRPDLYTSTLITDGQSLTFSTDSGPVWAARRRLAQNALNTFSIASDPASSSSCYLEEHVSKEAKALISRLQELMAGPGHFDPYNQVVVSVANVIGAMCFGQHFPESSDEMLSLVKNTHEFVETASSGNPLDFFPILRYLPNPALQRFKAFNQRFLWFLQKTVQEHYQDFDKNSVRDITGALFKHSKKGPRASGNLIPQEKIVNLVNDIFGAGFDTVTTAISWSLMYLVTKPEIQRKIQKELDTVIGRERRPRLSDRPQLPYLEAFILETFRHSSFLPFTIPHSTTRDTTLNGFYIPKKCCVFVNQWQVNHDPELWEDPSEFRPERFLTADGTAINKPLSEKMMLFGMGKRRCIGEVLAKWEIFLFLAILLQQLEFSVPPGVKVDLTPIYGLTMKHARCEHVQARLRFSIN
Briefly: Inhibition of CYP1A2 (unknown origin) at 3 uM. Type of data set: ADME.

The target in a further data set is CYP2C9 (Homo sapiens, UniProt P11712). Briefly: Inhibition of CYP2C9 (unknown origin) at 3 uM. Type of data set: ADME.
CYP2C9, sequence (P11712 whole entry, the tested form may be a part): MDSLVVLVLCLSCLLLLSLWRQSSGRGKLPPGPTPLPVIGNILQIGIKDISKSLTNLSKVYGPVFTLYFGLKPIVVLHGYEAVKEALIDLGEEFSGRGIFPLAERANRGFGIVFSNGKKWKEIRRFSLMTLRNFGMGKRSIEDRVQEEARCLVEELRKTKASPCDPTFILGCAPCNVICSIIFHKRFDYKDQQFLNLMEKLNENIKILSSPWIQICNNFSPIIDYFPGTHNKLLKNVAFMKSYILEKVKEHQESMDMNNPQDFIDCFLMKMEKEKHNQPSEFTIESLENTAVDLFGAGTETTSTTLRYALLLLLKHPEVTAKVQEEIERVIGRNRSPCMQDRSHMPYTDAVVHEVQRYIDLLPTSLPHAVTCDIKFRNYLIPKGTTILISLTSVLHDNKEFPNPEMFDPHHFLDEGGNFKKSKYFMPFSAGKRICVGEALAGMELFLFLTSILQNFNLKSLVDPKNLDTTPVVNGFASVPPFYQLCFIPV
Data set [4] has as its target T1, Mineralocorticoid receptor. Briefly: Antagonist activity at human mineralocorticoid receptor ligand binding domain expressed in human Huh7 cells after 16 hrs by luciferase reporter gene assay in presence of serum. Type of data set: cell-based, Huh-7.
Data set [5] can be described thus: Apparent permeability across dog RRCK cells. Type of data set: ADME, cell-based, Canis lupus familiaris, MDCKII-LE. As to conditions: MDCK.

pIC50: −log10 of the molar value.

The pIC50 is −log10 of the IC50, conventionally taken in molar units. Broadly, the logD is lipophilicity at a set pH, counting ionised and neutral species. A high value points to a more lipophilic compound. For orientation: inhibition means how much of the control response was suppressed. A lower inhibition goes with a weak effect. What is called Papp is the rate of passage across a membrane or cell layer, normalised by area and donor concentration. Turning to `Cc1cn(-c2ccc(CNS(=O)(=O)c3cc(F)ccc3F)cc2)c(C)n1`, in data set [1], the microsomal CLint stood at 27 µL/min/mg. Moreover, the pIC50 in data set [2] was 6.25; on Glucocorticoid receptor, 5.66; in data set [4] it was 5.88. Also, the logD in data set [3] worked out at 2.3. Besides, the inhibition at 3 µM on CYP1A2 and against CYP2C9 was below 5% throughout. The Papp in data set [5] is 15.4 ×10⁻⁶ cm/s.
